Assay [1] deals with mouse embryo fibroblasts of the Balb/c 3T3 clone 31 line. Description: In vitro phototoxicity test 3T3 NRU. It is filed as cell-based. As to conditions: BALB/c3T3, light or radiation study.
Protocol: The cytotoxicity is evaluated by determining cell viability using a vital stain: neutral red, 24 hours after treatment with the reference elements and the extract of M. peregrina according to the invention with or without UVA irradiation. […] The positive control is a chlorpromazine solution (CAS No.: 69-09-0). The negative control is a diluent for the test extract and for the reference (buffered saline solution±1% solvent). The peptide hydrolyzate was tested at eight concentrations in at least four culture wells per concentration studied, in the presence or absence of UVA. […]
The seeded plates were incubated for 24 hours at 37° C. and 5% CO2. […] The pH of the highest concentration was measured; it was between 6.5 and 7.8. […] The spectral irradiance of the test device was measured in the wavelength range from 250 to 700 nanometers with a calibrated spectroradiometer.
One of the two plates was irradiated with its cover on at room temperature, and the other plate was protected from UVA and was maintained at room temperature during the irradiation. […] The next day, the cell viability (growth, morphology, monolayer integrity) was evaluated by observations using a phase-contrast microscope. […] The absorbance values were measured at 450 nm.
The next assay has as its system DKK-1. Description: DKK-1 synthesis and release, ELISA. It is filed as cell-based, human. The following applies: tested at 100 nm; p<0.01. How it is done:
The object of this study is to evaluate the effect of the compound known as “peregrina peptide hydrolyzate” on DKK-1 synthesis and release in a model composed of normal human fibroblasts in monolayer culture.
Protocol: Human fibroblast cells were obtained from a donor. To perform the experiments, the fibroblasts were grown as a monolayer culture until confluence was reached. 100 nM dexamethasone was used as a reference inducer of DKK-1 synthesis and release.
[…] were incubated for 48 hours in the absence (control) or presence of reference product or test product: Peregrina peptide hydrolyzate: 0.01%; 0.1% and 0.5% (v/v).
At the end of the incubation, the incubation media were removed to perform the DKK-1 release measurement.
The test compound “peregrina peptide hydrolyzate” was diluted directly in the incubation medium so as to reach the various concentrations described above.
At the end of the 48-hour incubation period, the DKK-1 released into the incubation media was quantified by means of a specific sensitive ELISA kit.
At the end of the incubation period, the proteins contained in the cell lyzates were quantified by means of a spectrocolorimetric method (Bradford method).
The results are expressed as ng DKK-1 per mg of protein (mean±S.D.).
A general note: An ELISA detects its analyte on a solid surface through an enzyme-linked reagent.

By IC50 is commonly meant the concentration at which inhibition is half-maximal.

Converted amounts (≈) assume the structure as drawn.

Consider `CN(C)CCCN1c2ccccc2Sc2ccc(Cl)cc21` [Chlorpromazine, chlorpromazine], for which the IC50 in assay [1] (in the absence of UVA) was 7 to 90 µg/mL (≈ 22 to 282 µM); in assay [1] (in the presence of UVA) it was 0.1 to 2 µg/mL.

As for `C[C@@H]1C[C@H]2[C@@H]3CCC4=CC(=O)C=C[C@]4(C)[C@@]3(F)[C@@H](O)C[C@]2(C)[C@@]1(O)C(=O)CO` [dexamethasone], the “increase of released DKK-1 relative to the control” value with DKK-1 was found to be 181.8%.

The values above are taken from patent US12303587B2, “Extract of Moringa peregrina seed cake, method for obtaining same and use thereof in cosmetic or nutricosmetic compositions” (AGENCE FRANCAISE POUR LE DEVELOPPEMENT D'AL ULA, priority 2020, dated 2025).
